# Experimental data reported in patent US20120157452A1, “1H-PYRAZOLO[3,4-B] PYRIDINE COMPOUNDS FOR INHIBITING RAF KINASE” (GENENTECH, INC., priority 2009, published 2012).
# Legend:
# V600E full-length B-Raf = target: T1, V600E full-length B-Raf (Homo sapiens, UniProt P15056, V600E); assay: B-Raf IC50 assay: incorporation of radio labeled phosphate from [γ-33P]ATP into FSBA-modified wild-type MEK; format: biochemical
# T1 construct: made in house; host or cells: Sf9 insect cells (baculovirus)
# In short: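 Sf9-expressed enzyme (20 nM) preincubated 15 min with 1 µM FSBA-MEK, then reaction started with ATP (4 µM final plus [γ-33P]ATP) in Pipes pH 7.2, 100 mM KCl, 10 mM MgCl2. 60 min at 22 °C; TCA-quenched, filter-captured product counted by scintillation.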
# LOX xenografts = assay: Tumor Growth Inhibition (LOX) in nude mice with subcutaneous LOX xenografts; format: in vivo; details: female nude mice, subcutaneous LOX xenograft, 30 mg/kg PO on days 1, 2, 3 and 4
# Description: Female nude mice were implanted subcutaneously on the right flank with approximately 3.5×10^6 LOX cells in 100 μL PBS. Five to seven days later, tumors were measured and mice were randomized into groups of six with average tumor volume in each group of approximately 200 mm^3. Examples 30 and 42 were dissolved in 80% PEG400/20% ethanol before dosing, and administered PO at a volume of 5 mL/kg. Dosing was vehicle alone on days 1, 2, 3 and 4; and Examples 30 and 42 at 30 mg/kg on days 1, 2, 3 and 4 Animal weights and tumor volumes were measured using electronic calipers on […]. Tumor volume was calculated using the formula: volume=(width^2×length)/2. Each Example was run in a separate study with its own vehicle comparison.
# [1] = 4 μM ATP, 60-minute incubation, representative data of multiple tests
# T1 sequence (P15056 whole entry V600E): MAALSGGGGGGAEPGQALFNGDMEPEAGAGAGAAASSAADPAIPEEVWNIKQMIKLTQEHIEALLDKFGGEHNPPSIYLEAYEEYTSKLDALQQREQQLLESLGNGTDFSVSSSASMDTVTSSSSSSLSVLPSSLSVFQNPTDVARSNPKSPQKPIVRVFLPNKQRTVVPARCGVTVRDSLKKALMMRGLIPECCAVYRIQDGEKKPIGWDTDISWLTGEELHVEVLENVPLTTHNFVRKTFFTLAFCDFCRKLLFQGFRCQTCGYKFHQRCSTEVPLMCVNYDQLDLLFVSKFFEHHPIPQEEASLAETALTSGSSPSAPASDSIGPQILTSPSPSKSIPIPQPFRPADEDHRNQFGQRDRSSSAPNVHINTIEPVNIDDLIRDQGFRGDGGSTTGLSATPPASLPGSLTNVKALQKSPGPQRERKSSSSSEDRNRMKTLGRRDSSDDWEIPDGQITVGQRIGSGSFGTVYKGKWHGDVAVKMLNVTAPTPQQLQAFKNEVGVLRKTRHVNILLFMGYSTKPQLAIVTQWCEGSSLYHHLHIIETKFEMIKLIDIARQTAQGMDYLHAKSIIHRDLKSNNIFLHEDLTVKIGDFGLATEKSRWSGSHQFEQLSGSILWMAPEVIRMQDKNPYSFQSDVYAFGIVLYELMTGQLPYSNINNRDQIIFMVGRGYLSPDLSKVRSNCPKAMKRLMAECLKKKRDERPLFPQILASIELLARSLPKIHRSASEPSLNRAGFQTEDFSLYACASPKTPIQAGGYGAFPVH
SMILES,IC50 (V600E full-length B-Raf; [1]) [nM],IC50 (V600E full-length B-Raf; bound stated) [nM],Tumor Volume (mm^3) Day 1 (LOX xenografts) [mm^3],Tumor Volume (mm^3) Day 3 (LOX xenografts) [mm^3],Tumor Volume (mm^3) Day 5 (LOX xenografts) [mm^3]
"COc1n[nH]c2ncc(NC(=O)c3c(Cl)ccc(OCc4ccc(C(F)(F)F)cn4)c3F)cc12 [Example 42, 6-chloro-2-fluoro-N-(3-methoxy-1H-pyrazolo[3,4-b]pyridin-5-yl)-3-((5-(trifluoromethyl)pyridin-2-yl)methoxy)benzamide]",1.76,< 100,191.22,214.61,161.55
"COc1n[nH]c2ncc(NC(=O)c3c(Cl)ccc(OCc4ccc(Cl)cc4)c3F)cc12 [Example 30, 6-chloro-3-(4-chlorobenzyloxy)-2-fluoro-N-(3-methoxy-1H-pyrazolo[3,4-b]pyridin-5-yl)benzamide]",0.74,< 100,221.68,204.49,168.94
"COc1n[nH]c2ncc(NC(=O)c3c(Cl)ccc(OCc4cccc(CN5CCOCC5)c4)c3F)cc12 [Example 64, 6-chloro-2-fluoro-N-(3-methoxy-1H-pyrazolo[3,4-b]pyridin-5-yl)-3-(3-(morpholinomethyl)benzyloxy)benzamide]",9.29,< 100,,,
"O=C(Nc1cnc2[nH]nc(C(F)(F)F)c2c1)c1c(Cl)ccc(OCc2ccccc2)c1F [Example 8, 3-(benzyloxy)-6-chloro-2-fluoro-N-(3-(trifluoromethyl)-1H-pyrazolo[3,4-b]pyridin-5-yl)benzamide]",5.83,< 100,,,
"COc1n[nH]c2ncc(NC(=O)c3c(Cl)ccc(OCc4ccccc4F)c3F)cc12 [Example 3, 6-chloro-2-fluoro-3-(2-fluorobenzyloxy)-N-(3-methoxy-1H-pyrazolo[3,4-b]pyridin-5-yl)benzamide]",0.44,< 100,,,
"CNc1n[nH]c2ncc(NC(=O)c3c(Cl)ccc(OCc4ccccc4)c3F)cc12 [Example 11, 3-benzyloxy-6-chloro-2-fluoro-N-(3-(methylamino)-1H-pyrazolo[3,4-b]pyridin-5-yl)benzamide]",7.03,< 100,,,
"CCOc1n[nH]c2ncc(NC(=O)c3c(Cl)ccc(OCc4ccccc4)c3F)cc12 [Example 14, 3-(benzyloxy)-6-chloro-N-(3-ethoxy-1H-pyrazolo[3,4-b]pyridin-5-yl)-2-fluorobenzamide]",0.93,< 100,,,
"COc1n[nH]c2ncc(NC(=O)c3c(Cl)ccc(OC(C)c4ccccc4)c3F)cc12 (stereo not drawn) [Example 67, 6-chloro-2-fluoro-N-(3-methoxy-1H-pyrazolo[3,4-b]pyridin-5-yl)-3-(1-phenylethoxy)benzamide]",61,< 100,,,
"COc1n[nH]c2ncc(NC(=O)c3c(Cl)ccc(OCc4ccccc4Cl)c3F)cc12 [Example 60, 6-chloro-3-(2-chlorobenzyloxy)-2-fluoro-N-(3-methoxy-1H-pyrazolo[3,4-b]pyridin-5-yl)benzamide]",1.28,< 100,,,
